“And” between values parts separate entries of the source, which are not always exact repeats. Equal entries are not always repeated. Where two headings read alike, the source gives them in different places.
How the values were obtained:
HCV replicon genotype 1B = assay: Secondary HCV replicon cell assay, genotype 1B; type: cell-based, Hepatitis C Virus
Description: (§1) Table 10 presents data from the secondary HCV replicon cell assays using genotypes 1B and 1A.

HCV replicon genotype 1A = assay: Secondary HCV replicon cell assay, genotype 1A; type: cell-based, Hepatitis C Virus
Description: as §1

[1] = tested on: HCV replicon cells, genotype 1A; assay: Secondary HCV replicon cell assay, genotype 1A, cytotoxicity; type: cell-based
Description: as §1

[2] = tested on: HCV replicon cells, genotype 1B; assay: Secondary HCV replicon cell assay, genotype 1B, cytotoxicity; type: cell-based
Description: as §1

HCV replicon cells = assay: Primary HCV replicon cell assay, cytotoxicity; conditions: primary assay
Method: (§2) Antiviral activity of test compounds was assessed in a 3-day assay using the stably-expressing HCV replicon cell line, AVA5 (sub-genomic CON1, genotype 1b) (Blight et al., 2000) maintained as sub-confluent cultures on 96-well plates as previously described (Okuse et al., 2005). Antiviral activity was determined by blot hybridization analysis of intracellular HCV RNA (normalized to the level of cellular B-actin RNA in each culture sample) and cytotoxicity was assessed by neutral red dye uptake after 3 days of treatment. Additional studies were performed using Huh7 cells containing another HCV replicon, H/FL-Neo, a genotype 1a full length construct (Blight et al., 2003). For studies involving human serum, standard culture medium (which contains 10% fetal bovine serum) and assay conditions were maintained.
(§3) EC50, EC90 and CC50 values (±standard deviations [S.D.]) were calculated by linear regression analysis using data combined from all treated cultures (Korba and Gerin, 1992; Okuse et al., 2005). […] Selectivity index (S.I.) was calculated as CC50/EC90 for HBV assays and CC50/EC50 for HCV assays. EC90 values were used for calculation of the S.I. in HBV assays since at least a […] depression of HBV DNA levels is typically required to achieve statistical significance in this assay system (Korba and Gerin, 1992). For combination treatments, EC50, EC90, CC50 and S.I. are presented for the first compound listed. The molar ratio of the compounds in each combination is also indicated.

HCV replicon = assay: Primary HCV replicon cell assay; type: cell-based, Hepatitis C Virus
Method: as §2, §3

AVA5 cells = assay: Cytotoxicity by neutral red dye uptake in AVA5 cells; type: cell-based; conditions: Genotype 1b replicon, 3 days
2.2.15 cells = assay: Cytotoxicity by neutral red dye uptake in 2.2.15 cells; conditions: confluent 2.2.15 cultures, nine daily doses, neutral red uptake
Method: (§4) HBV antiviral assays were conducted as previous described (Korba and Gerin, 1992).
as §3

[3] = tested on: HCV replicon, sub-genomic CON1, genotype 1b; assay: 3-day HCV replicon assay in AVA5 cells (intracellular HCV RNA, blot hybridization); type: cell-based, Hepatitis C Virus
Method: as §2, §3

[4] = tested on: HCV replicon H/FL-Neo, genotype 1a full length; assay: HCV replicon assay in Huh7 cells containing H/FL-Neo; type: cell-based, Hepatitis C Virus
Method: as §2, §3

[5] = tested on: Huh7 cells containing H/FL-Neo; assay: Cytotoxicity by neutral red dye uptake in Huh7 cells containing H/FL-Neo; type: cell-based; conditions: Genotype 1a replicon
HBV = HBV antiviral assay in confluent 2.2.15 cell cultures (HBV DNA, quantitative blot hybridization); type: cell-based, Hepatitis B Virus
Method: EC50, EC90 and CC50 values (±standard deviations [S.D.]) were calculated by linear regression analysis using data combined from all treated cultures (Korba and Gerin, 1992; Okuse et al., 2005). […] Selectivity index (S.I.) was calculated as CC50/EC90 for HBV assays and CC50/EC50 for HCV assays. EC90 values were used for calculation of the S.I. in HBV assays since at least a 3-fold depression of HBV DNA levels is typically required to achieve statistical significance in this assay system (Korba and Gerin, 1992).

[6] = cited from earlier work
[7] = Cytotoxicity by neutral red dye uptake in AVA5 cells; type: cell-based; conditions: human, AVA5 cells (HCV replicon, sub-genomic CON1), Genotype 1b replicon
[8] = Cytotoxicity by neutral red dye uptake in 2.2.15 cells; conditions: human
Method: as §4, §3

[9] = Cytotoxicity by neutral red dye uptake in Huh7 cells containing H/FL-Neo; type: cell-based; conditions: human; Genotype 1a replicon
[10] = Cytotoxicity in HCV replicon cells in the presence of human serum
Method: as §2, §3
(§5) To evaluate the effect of human serum on the anti-HCV potency and cytotoxicity of TIZ, human serum was added to the culture medium at various concentrations (Table 6). […] In the below tables, RM4863 is the same as compound 6 of Table 7.

cytochrome P450 enzymes = conditions: cited from earlier work
HCV replication = assay: HCV replicon assay in the presence of human serum; type: cell-based; conditions: Hepatitis C virus
Method: as §2, §3, §5

[11] = Genotype 1b replicon, 3 days, first compound listed for combinations
[12] = Hepatitis C virus, Huh-7, Genotype 1a replicon

Compound `CS(=O)(=O)c1cnc(NC(=O)c2ccccc2O)s1` [Compound 75] has an EC90 (HCV replicon genotype 1B) of 7.9 µM, an EC50 (HCV replicon genotype 1A) of 2.8 µM and an EC90 (HCV replicon genotype 1A) of 8.5 µM. It also gave a CC50 [1] of 56 µM, a CC50 [2] of 54 µM and a CC50 (HCV replicon cells) of 53 µM. For the same compound, the EC50 (HCV replicon) was 2.1 µM and the EC90 (HCV replicon) was 8.1 µM.
With `O=C(Nc1ncc(Br)s1)c1ccccc1O` [RM4832] the CC50 (AVA5 cells) was 98 ± 3.2 µM, the CC50 (2.2.15 cells) was greater than 100 µM and the EC50 [3, 11] was 4.9 ± 0.5 µM. The EC90 [3, 11] was 20 ± 1.9 µM, the “activity against HCV” value ([3]; among the other thiazolides) was “exhibited activity” and the “antiviral activity against full length genotype 1a replicon compared with AVA5 cells (genotype 1b)” value [4] was “equivalent”. The EC50 ([4]; Genotype 1a replicon) was 2.8 ± 0.3 µM, the EC90 ([4]; Genotype 1a replicon) was 9.4 ± 1.1 µM and the CC50 [5] was 88 ± 2.1 µM. The EC50 (HBV; 2.2.15 cells, nine daily doses, read-out: Extracellular virion DNA EC50) was 1.2 ± 0.1 µM, the EC90 (HBV; 2.2.15 cells, nine daily doses, read-out: Extracellular virion DNA EC90) was 4 ± 0.3 µM and the EC50 (HBV; 2.2.15 cells, nine daily doses, read-out: Intracellular HBV RI EC50) was 2.9 ± 0.3 µM. For the same compound, the EC90 (HBV; 2.2.15 cells, nine daily doses, read-out: Intracellular HBV RI EC90) was 8.7 ± 1 µM.
For `O=C(Nc1ncc([N+](=O)[O-])s1)c1ccccc1O` [TIZ, tizoxanide], the “elimination half-life from plasma” value ([6]; in vivo) is given as “approximately 1.5 hours”, the Maximum serum concentrations ([6]; one 500 mg NTZ tablet (Alinia) orally with food) is given as “approximately 10 μg/mL and ~37 μM” and the “part of an oral dose that passes through the intestinal tract and is excreted in feces as TIZ” value ([6]; oral dose of NTZ) is given as “Approximately two-thirds”. The CC50 at 3 days [7] was 15 ± 1.2 µM, the CC50 at 9 days [8] was greater than 100 µM and the “Selectivity Index” value ([3]; Genotype 1b replicon, CC50/EC50) was 100. For the same compound, the “antiviral activity against full length genotype 1a replicon compared with AVA5 cells (genotype 1b)” value [4] was “equivalent”, the “Selectivity Index” value ([4]; Genotype 1a replicon, CC50/EC50) was 56 and the EC50 [4, 12] was 0.25 ± 0.03 µM. The EC90 [4, 12] was 1 ± 0.1 µM, the CC50 at 3 days [9] was 14 ± 0.2 µM and the “Selectivity Index Virion” value (HBV; CC50/EC90, extracellular virion DNA) was greater than 172. The “Selectivity Index RI” value (HBV; CC50/EC90, intracellular HBV RI) was greater than 83, the EC50 (HBV; Hepatitis B virus, read-out: Intracellular HBV RI EC50) was 0.46 ± 0.05 µM and the EC50 (HBV; Hepatitis B virus, 2.2.15 cells, nine daily doses, read-out: Extracellular virion DNA EC50) was 0.15 ± 0.02 µM. For the same compound, the EC90 (HBV; Hepatitis B virus, 2.2.15 cells, nine daily doses, read-out: Extracellular virion DNA EC90) was 0.58 ± 0.06 µM, the EC90 (HBV; Hepatitis B virus, 2.2.15 cells, nine daily doses, read-out: Intracellular HBV RI EC90) was 1.2 ± 0.2 µM and the CC50 at 3 days ([10]; CC50, human serum 0 %) was 28 ± 0.9 µM. It also gave a CC50 at 3 days ([10]; CC50, human serum 2.5 %) of 65 ± 1.4 µM, a CC50 at 3 days ([10]; CC50, human serum 5 %) of 97 ± 3.9 µM and a CC50 at 3 days ([10]; CC50, human serum 10 %) greater than 100 µM. The CC50 at 3 days ([10]; CC50, human serum 15 %) was greater than 100 µM, the CC50 at 3 days ([10]; CC50, human serum 20 %) was greater than 100 µM and the CC50 at 3 days ([10]; CC50, human serum 30 %) was greater than 100 µM. For the same compound, the “inhibition of cytochrome P450 enzymes” value (cytochrome P450 enzymes) was “does not inhibit”, the EC50 (HCV replication; human serum 0 %) was 0.25 ± 0.01 µM and the EC90 (HCV replication; human serum 0 %) was 0.98 ± 0.04 µM. For the same compound, the EC50 (HCV replication; human serum 2.5 %) was 0.48 ± 0.02 µM, the EC90 (HCV replication; human serum 2.5 %) was 1.1 ± 0.1 µM and the EC50 (HCV replication; human serum 5 %) was 0.64 ± 0.05 µM. For the same compound, the EC90 (HCV replication; human serum 5 %) was 2.3 ± 0.1 µM, the EC50 (HCV replication; human serum 10 %) was 1.1 ± 0.1 µM and the EC90 (HCV replication; human serum 10 %) was 3 ± 0.2 µM. It also gave an EC50 (HCV replication; human serum 15 %) of 2.7 ± 0.3 µM, an EC90 (HCV replication; human serum 15 %) of 15 ± 2 µM and an EC50 (HCV replication; human serum 20 %) of 9.4 ± 0.8 µM. It also gave an EC90 (HCV replication; human serum 20 %) of 27 ± 2.2 µM, an EC50 (HCV replication; human serum 30 %) of 9.3 ± 0.9 µM and an EC90 (HCV replication; human serum 30 %) of 32 ± 3 µM.

Reference: patent US8895752B2, “Alkylsulfonyl-substituted thiazolide compounds” (priority 2007, dated 2014)
